In PubChem BioAssay (NCI):
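Results reflect a 48-hour exposure of cells in 96-well plates to compound at five concentrations. GI50: concentration for 50% inhibition of growth. TGI is the concentration that stops growth completely.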

Key:
Experiment in all cases: growth of human tumour cells (NCI), 48 h
[1] = test system: UACC-62 melanoma
[2] = test system: NCI-H460 lung
[3] = test system: BT-549 breast
[4] = test system: TK-10 renal
[5] = test system: A549 NSCLC
[6] = test system: HCT-116 colon
[7] = test system: OVCAR-4 ovarian
[8] = test system: CCRF-CEM leukemia
[9] = test system: SNB-19 CNS
[10] = test system: RPMI-8226 leukemia
[11] = test system: DU-145 prostate
[12] = test system: MOLT-4 leukemia
[13] = test system: U251 CNS
[14] = test system: LOX IMVI melanoma
[15] = test system: HOP-92 NSCLC
[16] = test system: SK-MEL-2 melanoma
[17] = test system: KM12 colon
[18] = test system: SK-OV-3 ovarian
[19] = test system: NCI-H522 lung
[20] = test system: MALME-3M melanoma
[21] = test system: HCT-15 colon
[22] = test system: T-47D breast
[23] = test system: HS 578T breast
[24] = test system: PC-3 prostate
[25] = test system: SK-MEL-5 melanoma
[26] = test system: COLO 205 colon
[27] = test system: MDA-MB-231 breast
[28] = test system: OVCAR-3 ovarian
[29] = test system: ACHN renal
[30] = test system: EKVX NSCLC
[31] = test system: HT29 colon
[32] = test system: OVCAR-8 ovarian
[33] = test system: MCF7 breast
[34] = test system: SN12C renal
[35] = test system: 786-0 renal
[36] = test system: M14 melanoma
[37] = test system: SW-620 colon
[38] = test system: UACC-257 melanoma
[39] = test system: SK-MEL-28 melanoma
[40] = test system: IGROV1 ovarian
[41] = test system: SF-539 CNS
[42] = test system: NCI/ADR-RES ovarian
[43] = test system: MDA-MB-435
[44] = test system: UO-31 renal
[45] = test system: NCI-H23 lung
[46] = test system: A498 renal
[47] = test system: SF-295 CNS
[48] = test system: CAKI-1 renal
[49] = test system: RXF 393 renal
[50] = test system: HOP-62 NSCLC
[51] = test system: HL-60(TB) leukemia
[52] = test system: K-562 leukemia
[53] = test system: SNB-75 CNS
[54] = test system: HCC-2998 colon
[55] = test system: SR leukemia
[56] = test system: OVCAR-5 ovarian
[57] = test system: SF-268 CNS
[58] = test system: NCI-H226 lung

With `O=C(NNc1nc2cc(F)ccc2n2cccc12)c1ccncn1` the GI50 [1] was 255 nM, the TGI [1] was 2490 nM and the GI50 [2] was 76.4 nM. For the same compound, the TGI [2] was over 7440 nM, the GI50 [3] was 841 nM and the TGI [3] was over 21300 nM. For the same compound, the GI50 [4] was 361 nM, the TGI [4] was over 19000 nM and the GI50 [5] was 253 nM. For the same compound, the TGI [5] was over 30000 nM, the GI50 [6] was 153 nM and the TGI [6] was over 11000 nM. For the same compound, the GI50 [7] was 162 nM, the TGI [7] was over 8250 nM and the GI50 [8] was 32.7 nM. The TGI [8] was 428 nM, the GI50 [9] was 396 nM and the TGI [9] was over 30000 nM. It also gave a GI50 [10] of 242 nM, a TGI [10] of 2300 nM and a GI50 [11] of 348 nM. It also gave a TGI [11] of over 23600 nM, a GI50 [12] of 109 nM and a GI50 [13] of 163 nM. It also gave a TGI [13] of over 30000 nM, a GI50 [14] of 168 nM and a TGI [14] of over 9230 nM. The GI50 [15] was 287 nM, the TGI [15] was 11700 nM and the GI50 [16] was 1130 nM. The TGI [16] was over 17000 nM, the GI50 [17] was 278 nM and the TGI [17] was over 22500 nM. For the same compound, the GI50 [18] was 363 nM, the TGI [18] was 14000 nM and the GI50 [19] was 429 nM. It also gave a TGI [19] of over 6940 nM, a GI50 [20] of 910 nM and a TGI [20] of over 21200 nM. For the same compound, the GI50 [21] was 70.4 nM, the TGI [21] was over 20200 nM and the GI50 [22] was 301 nM. It also gave a TGI [22] of over 18300 nM, a GI50 [23] of 1810 nM and a TGI [23] of over 24900 nM. It also gave a GI50 [24] of 183 nM, a TGI [24] of 13600 nM and a GI50 [25] of 398 nM. It also gave a TGI [25] of 5410 nM, a GI50 [26] of 272 nM and a TGI [26] of over 13500 nM. It also gave a GI50 [27] of 766 nM, a TGI [27] of over 30000 nM and a GI50 [28] of 191 nM. For the same compound, the TGI [28] was over 7020 nM, the GI50 [29] was 179 nM and the TGI [29] was over 30000 nM. The GI50 [30] was 234 nM, the TGI [30] was over 16100 nM and the GI50 [31] was 354 nM. For the same compound, the TGI [31] was over 13500 nM, the GI50 [32] was 277 nM and the TGI [32] was over 28400 nM. For the same compound, the GI50 [33] was 270 nM, the TGI [33] was over 15300 nM and the GI50 [34] was 564 nM. It also gave a TGI [34] of over 30000 nM, a GI50 [35] of 412 nM and a TGI [35] of over 15700 nM. It also gave a GI50 [36] of 255 nM, a TGI [36] of over 11000 nM and a GI50 [37] of 284 nM. The TGI [37] was over 24100 nM, the GI50 [38] was 712 nM and the TGI [38] was 8250 nM. For the same compound, the GI50 [39] was 567 nM, the TGI [39] was over 30000 nM and the GI50 [40] was 211 nM. For the same compound, the TGI [40] was over 30000 nM, the GI50 [41] was 435 nM and the TGI [41] was over 9300 nM. It also gave a GI50 [42] of 242 nM, a TGI [42] of 9350 nM and a GI50 [43] of 1170 nM. For the same compound, the TGI [43] was over 30000 nM, the GI50 [44] was 85.6 nM and the TGI [44] was 4180 nM. The GI50 [45] was 437 nM, the TGI [45] was over 30000 nM and the GI50 [46] was 745 nM. It also gave a TGI [46] of 3730 nM, a GI50 [47] of 105 nM and a TGI [47] of 6750 nM. For the same compound, the GI50 [48] was 295 nM, the TGI [48] was over 30000 nM and the GI50 [49] was 612 nM. The TGI [49] was 3070 nM, the GI50 [50] was 94.1 nM and the TGI [50] was 9120 nM. It also gave a GI50 [51] of 293 nM, a GI50 [52] of 176 nM and a TGI [52] of over 9890 nM. It also gave a GI50 [53] of 316 nM, a TGI [53] of over 25800 nM and a GI50 [54] of 738 nM. For the same compound, the TGI [54] was over 23100 nM, the GI50 [55] was 71.1 nM and the GI50 [56] was 1300 nM. For the same compound, the TGI [56] was over 30000 nM, the GI50 [57] was 234 nM and the TGI [57] was over 30000 nM. For the same compound, the GI50 [58] was 548 nM and the TGI [58] was 10300 nM.
